The results in this text go back to patent USRE33906E, “Cyclic carboxamide derivatives and their use as analgesics” (Dr.Lo.Zambeletti S.p.A., priority 1985, dated 1992).

The test system of test [1] is mice (reaction time under heat source). Put plainly: Mouse Tail-flick test. Conditions: sc, 0.5 h; for responders at 1 mg/kg: 1 mg Kg^-1, Table 3, read-out: Mouse tail flick % Protection. It counts as in vivo, mouse (Male Charles River). The method, then:
Mouse Tail-flick test (Modified from the procedure published by D'Amour et al., J. Pharm. Exptl. Ther. 72, 74/1941)
Male Charles River mice, average weight 26 g, are used. Selection is carried out before beginning of experiments: only mice whose reaction time is less than 8 sec are used. They are randomly distributed into groups of 10 and dosed with compounds under test, with positive and negative controls being included.
Compounds under test are administered subcutaneously in isotonic saline in a volume of 20 ml. Kg^-1. 30 min later mice are placed again under heat source (Socrel apparatus) and reaction time is recorded.
The analgestic activity of the test compound is expressed as the percent number of mice doubling the initial time within a group. [formula]

Test [2] concerns mice (p-phenylquinone writhing). Put plainly: Mouse p-phenylquinone Writhing test. The format is in vivo, mouse (Male Charles River). The note with it: sc, Table 2. On the procedure:
Mouse p-phenylquinone Writhing test (According to Siegmund et al., Proc. Soc. Exptl. Biol. 95, 729/1957)
Male Charles River mice, average weight 26 g, are randomly distributed into group of 10 and are dosed subcutaneously with compounds under test, dissolved in isotonic saline (20 ml.Kg^-1). The experiments are carried out in the presence of positive and negative controls. 20 min after the mince are injected intraperitoneally with p-phenylquinone 0.02%, 10 ml. Kg^-1, maintained at 37° C. in a water bath. The mice are placed in a perspex compartmented observation box and observed for a period of 8 min after injection of p-phenylquinone. The dose-response curve is obtained by basing observation on the all or none response.
(In general: An intraperitoneal irritant provokes the stretching counted in writhing tests.)

Test [3] addresses T1, K receptor (Kappa opioid receptor) (Cavia porcellus, UniProt P41144).
T1 construct: fresh guinea pig brain homogenate; from tissue; host or cells: guinea pig whole brain without cerebellum, homogenate
Description: Radio receptor binding to K sites (tritiated Ethylketocyclazocine). The arrangement: species or system guinea pig. The note with it: for remaining activity at 1 µM: 40 min, 10^-6 M, read-out: Opiate receptor binding K, % residual specific binding at 10^-6 M. On the procedure:
(§1) RECEPTOR AFFINITY STUDY Tissue preparation
(§2) Radio receptor binding to μ and K sites is performed on fresh guinea pig brain homogenate prepared according to Kosterlitz (1981).
(§3) Whole brain without cerebellum is homogenized in 50 mM, Tris-buffer (pH 7.4 at 0° C.) and centrifuged at 49,000×g×10 min.
(§4) The pellet is then resuspended in the same buffer, incubated at 37° C. for 45 min. and centrifuged again.
(§5) 1.9 ml of the final homogenate (1:100 in Tris-pH 7.4, 0° C.) is used for the binding assay.
Binding to K sites (Magnan J., 1982)
The binding of tritiated Ethylketocyclazocine to brain homogenate is measured the in presence of 100 nanomolar D-Ala-D-LeuEnkephalin (DADLE) and 100 nanomolar DAGO, added to saturate the δ and μ opioid receptors respectively.
Final homogenate with solutions of the cold ligand and of the labelled ligand is incubated for 40 min. at 25° C., filtered through Whatman GF/C glass filter discs and washed.
The radioactivity bound to the filters is counted by liquid scintillation spectrophotometry.
MR 2266.500 nM is utilized to determine the saturable binding.
(§6) For the calculation of the kinetic parameters of the binding of labelled and unlabelled ligands, the equilibrium dissociation constant (KD), the inhibition constant (Ki) and the maximum number of binding sites (B max) are determined from saturation curves and competition experiments (Hill 1910; Scatchard 1949; Cheng and Prusoff 1973; Gillan et al. 1980).
(§7) A concentration of radioligand near KD is used in the binding assays evaluating our compounds.

Another test has as its target μ receptor (Cavia porcellus, UniProt A0ACM8Q262). Put plainly: Radio receptor binding to μ sites (3H-DAGO). The method, then:
as §1, §2, §3, §4, §5
Binding to μ sites (Magnan J., 1982)
^3 H [D-Ala^2, MePhe^4, Gly-ol^5 ] Enkephalin (^3 H-DAGO), an enkephalin analogue that binds selectively to μ receptor, is added to the biological substrate and incubated at 25° C. for 40 min., filtered through Whatman GF-C and washed with ice-cold Tris-buffer.
The filters are then dryed, solubilized in Filtercount and the radioactivity monitored. Non specific binding is determined in the presence of 10^-6 M Naloxone.
as §6, §7

Test [4] concerns mice (reaction time under heat source). Put plainly: Mouse Tail-flick test. It counts as in vivo, mouse (Male Charles River). The note with it: oral (os), Table 3. For orientation: Hot-plate and tail-flick tests time the reaction to a heat stimulus.
The mark [5] stands for this setting: s.c., 30 min after dosing, Table 2, read-out: Mouse tail flick ED50.
The mark [6] stands for this setting: read-out: Receptor binding μ Ki, guinea pig brain homogenate, Table 2.
[7] abbreviates: guinea pig brain homogenate, Table 3.
[8] abbreviates: subcutaneous, Table 3, read-out: Mouse tail flick subcutaneous ED50.

Each structure is given as a SMILES string. Counter-ions that a name gives are not always drawn. Like-named read-outs stand apart in the source and are kept apart here.

Sequence of μ receptor (A0ACM8Q262 1-400): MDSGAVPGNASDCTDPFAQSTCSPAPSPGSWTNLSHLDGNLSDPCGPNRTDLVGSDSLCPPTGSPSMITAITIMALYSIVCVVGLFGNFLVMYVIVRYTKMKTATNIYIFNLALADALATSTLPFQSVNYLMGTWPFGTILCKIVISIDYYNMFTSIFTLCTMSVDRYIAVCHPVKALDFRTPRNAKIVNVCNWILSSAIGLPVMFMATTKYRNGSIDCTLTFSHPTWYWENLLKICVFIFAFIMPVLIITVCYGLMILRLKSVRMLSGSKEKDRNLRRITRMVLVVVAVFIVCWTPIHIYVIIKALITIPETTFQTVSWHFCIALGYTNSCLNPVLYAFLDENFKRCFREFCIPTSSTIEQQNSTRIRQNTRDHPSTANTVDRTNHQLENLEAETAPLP
T1 sequence (P41144 whole entry): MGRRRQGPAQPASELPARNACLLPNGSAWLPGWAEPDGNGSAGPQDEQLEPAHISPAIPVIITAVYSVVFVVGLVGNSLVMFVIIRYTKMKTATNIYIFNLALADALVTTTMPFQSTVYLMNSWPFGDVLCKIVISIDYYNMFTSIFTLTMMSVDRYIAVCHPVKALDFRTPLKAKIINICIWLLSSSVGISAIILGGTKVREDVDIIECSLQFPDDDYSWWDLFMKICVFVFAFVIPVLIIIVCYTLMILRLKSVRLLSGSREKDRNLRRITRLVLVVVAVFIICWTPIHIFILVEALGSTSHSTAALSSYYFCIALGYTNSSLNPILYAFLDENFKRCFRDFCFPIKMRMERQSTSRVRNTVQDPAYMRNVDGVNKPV

With `CCC(C(=O)N1CCCCC1CN1CCCC1)c1ccccc1` (single isomer, unassigned; isomer b) [Example 16, 1-(2-phenylbutyroil)-2-(1pyrrolidinylmethyl) piperidine hydrochloride. Isomer B], in test [1] (subcutaneous), the responders at 1 mg/kg stood at 40%.
A word on the ED50: it is the dose that gives a 50% effect, or the effect in half of the subjects. Broadly, the Ki is the dissociation constant of the complex between target and ligand, obtained from inhibition or displacement. Take `O=C(Cc1ccc(Cl)c(Cl)c1)N1CCCCC1CN1CCCC1` (centres unmarked) [Example 1, 1-(3,4-dichlorophenyl)acetyl-2-(1-pyrrolidinyl)methyl piperidine hydrochloride]: the results for the median effective dose (ED50) in test [2] and in test [1] (setting [5]) were 0.2 mg/kg and 0.11 mg/kg, respectively. The Ki in test [3] (guinea pig brain homogenate, tritiated Ethylketocyclazocine with DADLE and DAGO 100 nM each, Table 2, read-out: Receptor binding K Ki) was determined as 1.83 nM; on μ receptor (setting [6]) it was 1860 nM.
With `CN(C)CC1CCCCN1C(=O)Cc1ccc(Cl)c(Cl)c1` (centres unmarked) [Example 2, 1-(3,4-dichlorophenyl)acetyl-2-dimethylaminomethyl piperidine hydrochloride], the 50% effective dose (ED50) in test [2] amounted to 0.65 mg/kg; in test [1] (setting [5]) it was 0.36 mg/kg. Besides, the Ki was 8.21 nM in test [3] and 3730 nM at μ receptor (guinea pig brain homogenate, Table 2, read-out: Receptor binding μ Ki).
Take `O=C(Cc1ccc(Cl)c(Cl)c1)N1CCCC[C@@H]1CN1CCCC1` [Example 3, (2R)-1-(3,4-dichlorophenylacetyl)-2-(1-pyrrolidinylmethyl)piperidine hydrochloride hydrate]: the 50% effective dose (ED50) in test [2] amounted to 12.4 mg/kg; in test [1] (setting [5]), 17.5 mg/kg. Moreover, the Ki is 62.1 nM in test [3] and 7110 nM at μ receptor (setting [6]).
Regarding `O=C(Cc1ccc(Cl)c(Cl)c1)N1CCCC[C@H]1CN1CCCC1` [Example 4, (2S)-1-(3,4-dichlorophenylacetyl)-2-(1-pyrrolidinylmethyl)piperidine hydrochloride hydrate], the ED50 in test [2] is 0.12 mg/kg; in test [1] (setting [5]), 0.055 mg/kg. Further, the results for the inhibition constant Ki (in test [3]; on μ receptor (setting [6])) were 0.77 nM and 1560 nM, respectively.
As to `CN(C)C[C@@H]1CCCCN1C(=O)Cc1ccc(Cl)c(Cl)c1` [Example 5, (2S)-1-(3,4-dichlorophenylacetyl)-2-dimethylamino methylpiperidine sesquihydrate], the 50% effective dose (ED50) in test [2] came to 0.44 mg/kg; in test [1] (setting [5]), 1.03 mg/kg. Moreover, the inhibition constant (Ki) in test [3] is 5.01 nM; on μ receptor (setting [6]), above 1 nM.
`O=C(Cc1ccc(Cl)c(Cl)c1)N1CCCCCC1CN1CCCC1` (centres unmarked) [Example 8, 1-(3,4-dichlorophenylacetyl)-2-(1-pyrrolidinylmethyl)-hexahydroazepine hydrochloride] showed an inhibition constant Ki in test [3] of 6.51 nM. For the same molecule, the 50% effective dose (ED50) in test [1] (setting [5]) turned out to be 8.76 mg/kg.
As to `O=C(Cc1ccccc1)N1CCCCC1CN1CCCC1` (centres unmarked) [Example 10, 1-phenylacetyl-2-(1-pyrrolidinylmethyl)piperidine hydrochloride], the remaining activity at 1 µM in test [3] (setting [7]) worked out at 100%. In addition, in test [1] (subcutaneous), the responders at 1 mg/kg was 40%.
Take `Cc1ccc(CC(=O)N2CCCCC2CN2CCCC2)cc1C` (centres unmarked) [Example 11, 1-(3,4-dimethylphenylacetyl)-2-(1-pyrrolidinylmethyl) piperidine hydrochloride]: the remaining activity at 1 µM in test [3] (setting [7]) was 67%. The responders at 1 mg/kg in test [1] (subcutaneous) turned out to be 60%.
`O=C(Cc1ccc2c(c1)CCC2)N1CCCCC1CN1CCCC1` (centres unmarked) [Example 12, 1-(5-indaneacetyl)-2-(1-pyrrolidinylmethyl)piperidine hydrochloride]: in test [3] (setting [7]), the remaining activity at 1 µM worked out at 62%. Besides, the responders at 1 mg/kg in test [1] (subcutaneous) was 60%.
Consider `O=C(Cc1ccc2c(c1)CCCC2)N1CCCCC1CN1CCCC1` (centres unmarked) [Example 13, 1-(6-tetralylacetyl)-2-(1-pyrrolidinylmethyl)piperidine hydrochloride], for which the ED50 in test [4] was found to be 3.91 mg/kg; in test [1] (setting [8]), 45 mg/kg. In addition, the Ki in test [3] (guinea pig brain homogenate, tritiated Ethylketocyclazocine, Table 3, read-out: Opiate receptor binding K Ki) is 5.72 nM; on μ receptor (read-out: Opiate receptor binding μ Ki, guinea pig brain homogenate, Table 3) it was 500 nM. The responders at 1 mg/kg in test [1] (subcutaneous) was found to be 80%.
For `O=C(Cc1ccc(Cl)cc1)N1CCCCC1CN1CCCC1` (centres unmarked) [Example 14, 1-(4-chlorophenylacetyl)-2-(1-pyrrolidinylmethyl) piperidine hydrochloride], the remaining activity at 1 µM in test [3] (setting [7]) came to 61%. For the same molecule, the responders at 1 mg/kg in test [1] (subcutaneous) was 40%.
As for `COc1ccc(CC(=O)N2CCCCC2CN2CCCC2)cc1OC` (centres unmarked) [Example 15, 1-(3-4-dimethoxyphenylacetyl)-2-(1-pyrrolidinylmethyl) piperidine hydrochloride], the remaining activity at 1 µM in test [3] (setting [7]) was 100%. In test [1] (subcutaneous), the responders at 1 mg/kg is 40%.
`O=C(COc1ccc(Cl)cc1)N1CCCCC1CN1CCCC1` (centres unmarked) [Example 17, 1-(4-chlorophenoxyacetyl)-2-(1-pyrrolidinylmethyl) piperidine hydrochloride]: the inhibition constant (Ki) in test [3] stood at 9.54 nM. The responders at 1 mg/kg in test [1] (subcutaneous) turned out to be 80%. Moreover, the ED50 in test [1] (setting [8]) was found to be 91 mg/kg.
